{"source": "the NIST ThermoML archive (doi:10.1016/j.jct.2017.02.022)", "key": {"[1]": {"experiment": "xn = mol fraction of the nth substance listed", "details": "101.3 kPa, Liquid; for speed of sound: Frequency=3 MHz, Sing-around technique in a fixed-path interferometer; for mass density: Vibrating tube method"}, "[2]": {"experiment": "refractive index (Na D-line) (dimensionless); xn = mol fraction of the nth substance listed", "details": "101.3 kPa, Liquid, Standard Abbe refractometry"}}, "note": "± gives the expanded uncertainty stated by the source.", "data": [{"compound": "CCn1cc[n+](C)c1.COS(=O)(=O)[O-]", "note": "[1-ethyl-3-methylimidazolium methylsulfate] + CCCCO", "values": [{"measurement": "speed of sound", "setting": "[1]; 298 K, x1 = 0.041", "value": "1260 ± 20", "unit": "m/s"}, {"measurement": "speed of sound", "setting": "[1]; 298 K, x1 = 0.219", "value": "1372 ± 20", "unit": "m/s"}, {"measurement": "speed of sound", "setting": "[1]; 298 K, x1 = 0.417", "value": "1504 ± 20", "unit": "m/s"}, {"measurement": "speed of sound", "setting": "[1]; 298 K, x1 = 0.571", "value": "1593 ± 20", "unit": "m/s"}, {"measurement": "speed of sound", "setting": "[1]; 298 K, x1 = 0.731", "value": "1662 ± 20", "unit": "m/s"}, {"measurement": "speed of sound", "setting": "[1]; 298 K, x1 = 0.909", "value": "1729 ± 20", "unit": "m/s"}, {"measurement": "speed of sound", "setting": "[1]; 298 K, x1 = 1", "value": "1762 ± 20", "unit": "m/s"}, {"measurement": "mass density", "setting": "[1]; 298 K, x1 = 0.041", "value": "843 ± 3", "unit": "kg/m3"}, {"measurement": "mass density", "setting": "[1]; 298 K, x1 = 0.219", "value": "976 ± 2", "unit": "kg/m3"}, {"measurement": "mass density", "setting": "[1]; 298 K, x1 = 0.417", "value": "1087 ± 2", "unit": "kg/m3"}, {"measurement": "mass density", "setting": "[1]; 298 K, x1 = 0.571", "value": "1156 ± 2", "unit": "kg/m3"}, {"measurement": "mass density", "setting": "[1]; 298 K, x1 = 0.731", "value": "1214 ± 2", "unit": "kg/m3"}, {"measurement": "mass density", "setting": "[1]; 298 K, x1 = 0.909", "value": "1268 ± 2", "unit": "kg/m3"}, {"measurement": "mass density", "setting": "[1]; 298 K, x1 = 1", "value": "1292 ± 2", "unit": "kg/m3"}, {"measurement": "speed of sound", "setting": "[1]; 303 K, x1 = 0.041", "value": "1243 ± 20", "unit": "m/s"}, {"measurement": "speed of sound", "setting": "[1]; 303 K, x1 = 0.219", "value": "1356 ± 20", "unit": "m/s"}, {"measurement": "speed of sound", "setting": "[1]; 303 K, x1 = 0.417", "value": "1488 ± 20", "unit": "m/s"}, {"measurement": "speed of sound", "setting": "[1]; 303 K, x1 = 0.571", "value": "1578 ± 20", "unit": "m/s"}, {"measurement": "speed of sound", "setting": "[1]; 303 K, x1 = 0.731", "value": "1648 ± 20", "unit": "m/s"}, {"measurement": "speed of sound", "setting": "[1]; 303 K, x1 = 0.909", "value": "1716 ± 20", "unit": "m/s"}, {"measurement": "speed of sound", "setting": "[1]; 303 K, x1 = 1", "value": "1750 ± 20", "unit": "m/s"}, {"measurement": "mass density", "setting": "[1]; 303 K, x1 = 0.041", "value": "839 ± 3", "unit": "kg/m3"}, {"measurement": "mass density", "setting": "[1]; 303 K, x1 = 0.219", "value": "972 ± 2", "unit": "kg/m3"}, {"measurement": "mass density", "setting": "[1]; 303 K, x1 = 0.417", "value": "1083 ± 2", "unit": "kg/m3"}, {"measurement": "mass density", "setting": "[1]; 303 K, x1 = 0.571", "value": "1152 ± 2", "unit": "kg/m3"}, {"measurement": "mass density", "setting": "[1]; 303 K, x1 = 0.731", "value": "1210 ± 2", "unit": "kg/m3"}, {"measurement": "mass density", "setting": "[1]; 303 K, x1 = 0.909", "value": "1264 ± 2", "unit": "kg/m3"}, {"measurement": "mass density", "setting": "[1]; 303 K, x1 = 1", "value": "1289 ± 2", "unit": "kg/m3"}, {"measurement": "speed of sound", "setting": "[1]; 308 K, x1 = 0.041", "value": "1226 ± 20", "unit": "m/s"}, {"measurement": "speed of sound", "setting": "[1]; 308 K, x1 = 0.219", "value": "1340 ± 20", "unit": "m/s"}, {"measurement": "speed of sound", "setting": "[1]; 308 K, x1 = 0.417", "value": "1473 ± 20", "unit": "m/s"}, {"measurement": "speed of sound", "setting": "[1]; 308 K, x1 = 0.571", "value": "1563 ± 20", "unit": "m/s"}, {"measurement": "speed of sound", "setting": "[1]; 308 K, x1 = 0.731", "value": "1634 ± 20", "unit": "m/s"}, {"measurement": "speed of sound", "setting": "[1]; 308 K, x1 = 0.909", "value": "1702 ± 20", "unit": "m/s"}, {"measurement": "speed of sound", "setting": "[1]; 308 K, x1 = 1", "value": "1739 ± 20", "unit": "m/s"}, {"measurement": "mass density", "setting": "[1]; 308 K, x1 = 0.041", "value": "835 ± 3", "unit": "kg/m3"}, {"measurement": "mass density", "setting": "[1]; 308 K, x1 = 0.219", "value": "967 ± 2", "unit": "kg/m3"}, {"measurement": "mass density", "setting": "[1]; 308 K, x1 = 0.417", "value": "1078 ± 2", "unit": "kg/m3"}, {"measurement": "mass density", "setting": "[1]; 308 K, x1 = 0.571", "value": "1147 ± 2", "unit": "kg/m3"}, {"measurement": "mass density", "setting": "[1]; 308 K, x1 = 0.731", "value": "1206 ± 2", "unit": "kg/m3"}, {"measurement": "mass density", "setting": "[1]; 308 K, x1 = 0.909", "value": "1261 ± 2", "unit": "kg/m3"}, {"measurement": "mass density", "setting": "[1]; 308 K, x1 = 1", "value": "1285 ± 2", "unit": "kg/m3"}, {"measurement": "speed of sound", "setting": "[1]; 313 K, x1 = 0.041", "value": "1209 ± 20", "unit": "m/s"}, {"measurement": "speed of sound", "setting": "[1]; 313 K, x1 = 0.219", "value": "1324 ± 20", "unit": "m/s"}, {"measurement": "speed of sound", "setting": "[1]; 313 K, x1 = 0.417", "value": "1457 ± 20", "unit": "m/s"}, {"measurement": "speed of sound", "setting": "[1]; 313 K, x1 = 0.571", "value": "1548 ± 20", "unit": "m/s"}, {"measurement": "speed of sound", "setting": "[1]; 313 K, x1 = 0.731", "value": "1620 ± 20", "unit": "m/s"}, {"measurement": "speed of sound", "setting": "[1]; 313 K, x1 = 0.909", "value": "1689 ± 20", "unit": "m/s"}, {"measurement": "speed of sound", "setting": "[1]; 313 K, x1 = 1", "value": "1727 ± 20", "unit": "m/s"}, {"measurement": "mass density", "setting": "[1]; 313 K, x1 = 0.041", "value": "830 ± 3", "unit": "kg/m3"}, {"measurement": "mass density", "setting": "[1]; 313 K, x1 = 0.219", "value": "963 ± 2", "unit": "kg/m3"}, {"measurement": "mass density", "setting": "[1]; 313 K, x1 = 0.417", "value": "1074 ± 2", "unit": "kg/m3"}, {"measurement": "mass density", "setting": "[1]; 313 K, x1 = 0.571", "value": "1143 ± 2", "unit": "kg/m3"}, {"measurement": "mass density", "setting": "[1]; 313 K, x1 = 0.731", "value": "1202 ± 2", "unit": "kg/m3"}, {"measurement": "mass density", "setting": "[1]; 313 K, x1 = 0.909", "value": "1257 ± 2", "unit": "kg/m3"}, {"measurement": "mass density", "setting": "[1]; 313 K, x1 = 1", "value": "1282 ± 2", "unit": "kg/m3"}, {"measurement": "refractive index", "setting": "[2]; 298 K, x1 = 0.041", "value": "1.403 ± 0.01"}, {"measurement": "refractive index", "setting": "[2]; 298 K, x1 = 0.219", "value": "1.424 ± 0.01"}, {"measurement": "refractive index", "setting": "[2]; 298 K, x1 = 0.417", "value": "1.442 ± 0.01"}, {"measurement": "refractive index", "setting": "[2]; 298 K, x1 = 0.571", "value": "1.454 ± 0.01"}, {"measurement": "refractive index", "setting": "[2]; 298 K, x1 = 0.731", "value": "1.464 ± 0.01"}, {"measurement": "refractive index", "setting": "[2]; 298 K, x1 = 0.909", "value": "1.475 ± 0.01"}, {"measurement": "refractive index", "setting": "[2]; 298 K, x1 = 1", "value": "1.48 ± 0.01"}, {"measurement": "refractive index", "setting": "[2]; 303 K, x1 = 0.041", "value": "1.401 ± 0.01"}, {"measurement": "refractive index", "setting": "[2]; 303 K, x1 = 0.219", "value": "1.422 ± 0.01"}, {"measurement": "refractive index", "setting": "[2]; 303 K, x1 = 0.417", "value": "1.44 ± 0.01"}, {"measurement": "refractive index", "setting": "[2]; 303 K, x1 = 0.571", "value": "1.452 ± 0.01"}, {"measurement": "refractive index", "setting": "[2]; 303 K, x1 = 0.731", "value": "1.462 ± 0.01"}, {"measurement": "refractive index", "setting": "[2]; 303 K, x1 = 0.909", "value": "1.473 ± 0.01"}, {"measurement": "refractive index", "setting": "[2]; 303 K, x1 = 1", "value": "1.479 ± 0.01"}, {"measurement": "refractive index", "setting": "[2]; 308 K, x1 = 0.041", "value": "1.398 ± 0.01"}, {"measurement": "refractive index", "setting": "[2]; 308 K, x1 = 0.219", "value": "1.419 ± 0.01"}, {"measurement": "refractive index", "setting": "[2]; 308 K, x1 = 0.417", "value": "1.437 ± 0.01"}, {"measurement": "refractive index", "setting": "[2]; 308 K, x1 = 0.571", "value": "1.449 ± 0.01"}, {"measurement": "refractive index", "setting": "[2]; 308 K, x1 = 0.731", "value": "1.461 ± 0.01"}, {"measurement": "refractive index", "setting": "[2]; 308 K, x1 = 0.909", "value": "1.472 ± 0.01"}, {"measurement": "refractive index", "setting": "[2]; 308 K, x1 = 1", "value": "1.478 ± 0.01"}, {"measurement": "refractive index", "setting": "[2]; 313 K, x1 = 0.041", "value": "1.395 ± 0.01"}, {"measurement": "refractive index", "setting": "[2]; 313 K, x1 = 0.219", "value": "1.416 ± 0.01"}, {"measurement": "refractive index", "setting": "[2]; 313 K, x1 = 0.417", "value": "1.435 ± 0.01"}, {"measurement": "refractive index", "setting": "[2]; 313 K, x1 = 0.571", "value": "1.447 ± 0.01"}, {"measurement": "refractive index", "setting": "[2]; 313 K, x1 = 0.731", "value": "1.459 ± 0.01"}, {"measurement": "refractive index", "setting": "[2]; 313 K, x1 = 0.909", "value": "1.47 ± 0.01"}, {"measurement": "refractive index", "setting": "[2]; 313 K, x1 = 1", "value": "1.476 ± 0.01"}]}]}
